Patent US9113629B2, “4-amino-6-(4-substituted-phenyl)-picolinates and 6-amino-2-(4-substituted-phenyl)-pyrimidine-4-carboxylates and their use as herbicides” (DOW AGROSCIENCES LLC, priority 2013, dated 2015)
Read-outs that look alike come from different tables or passages of the source.

Legend:
[1] = test system: Key Broadleaf Weed and Crop Species; assay: Post-emergent Test II herbicidal activity (Table 5); assay type: in vivo; details: post-emergence, 336 h, 14 days after application; for pest or weed control at 70 g/ha: application rate 70 g ai/ha; for pest or weed control at 140 g/ha: application rate 140 g ai/ha
In short: (§1)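 Test species were raised 7–21 d under greenhouse conditions until reaching the first or second true leaf, sprayed with formulated compound at 187 L/ha, and kept subirrigated to avoid wash-off. Fourteen days later, damage was rated visually on a 0–100% scale against untreated plants.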

[2] = test system: Key Grass and Sedge Weeds as well as Grass Crops; assay: Post-emergent Test II herbicidal activity (Table 6); assay type: in vivo; details: post-emergence, 336 h; for pest or weed control at 70 g/ha: 70 g ai/ha; for pest or weed control at 140 g/ha: 140 g ai/ha
In short: as §1

[3] = ABUTH: velvetleaf (Abutilon theophrasti), read-out: Visual Growth Reduction (%) 14 Days After Application, ABUTH
[4] = AMARE: redroot pigweed (Amaranthus retroflexus), read-out: Visual Growth Reduction (%) 14 Days After Application, AMARE
[5] = BRSNN: oilseed-rape, canola (Brassica napus), read-out: Visual Growth Reduction (%) 14 Days After Application, BRSNN
[6] = CHEAL: lambsquarters (Chenopodium album), read-out: Visual Growth Reduction (%) 14 Days After Application, CHEAL
[7] = EPHHL: wild poinsettia (Euphorbia heterophylla), read-out: Visual Growth Reduction (%) 14 Days After Application, EPHHL
[8] = HELAN: sunflower (Helianthus annuus), read-out: Visual Growth Reduction (%) 14 Days After Application, HELAN
[9] = VIOTR: wild pansy (Viola tricolor), read-out: Visual Growth Reduction (%) 14 Days After Application, VIOTR
[10] = CYPES: yellow nutsedge (Cyperus esculentus), read-out: Visual Growth Reduction (%) 14 Days After Application, CYPES
[11] = DIGSA: crabgrass (Digitaria sanguinalis), read-out: Visual Growth Reduction (%) 14 Days After Application, DIGSA
[12] = ECHCG: barnyardgrass (Echinochloa crus-galli), read-out: Visual Growth Reduction (%) 14 Days After Application, ECHCG
[13] = ORYSA: rice (Oryza sativa), crop, read-out: Visual Growth Reduction (%) 14 Days After Application, ORYSA
[14] = SETFA: giant foxtail (Setaria faberi), read-out: Visual Growth Reduction (%) 14 Days After Application, SETFA
[15] = SORVU: grain sorghum (Sorghum vulgare), read-out: Visual Growth Reduction (%) 14 Days After Application, SORVU
[16] = TRZSS (wheat, Triticum aestivum), crop, read-out: Visual Growth Reduction (%) 14 Days After Application, TRZSS
[17] = ZEAMX: maize, corn (Zea mays), crop, read-out: Visual Growth Reduction (%) 14 Days After Application, ZEAMX

Nc1c(F)c(-c2ccc(Br)c(F)c2F)nc(C(=O)O)c1Cl [Compound 147]
75 to 84%: pest or weed control at 140 g/ha [2, 13]
95 to 100%: pest or weed control at 70 g/ha [1, 3] | pest or weed control at 70 g/ha [1, 4] | pest or weed control at 140 g/ha [1, 4] | pest or weed control at 70 g/ha [1, 5] | pest or weed control at 140 g/ha [1, 5] | pest or weed control at 70 g/ha [1, 6] | pest or weed control at 140 g/ha [1, 6] | pest or weed control at 70 g/ha [1, 7] | pest or weed control at 140 g/ha [1, 7] | pest or weed control at 70 g/ha [1, 8] | pest or weed control at 140 g/ha [1, 8] | pest or weed control at 70 g/ha [1, 9] | pest or weed control at 140 g/ha [1, 9] | pest or weed control at 70 g/ha [2, 10] | pest or weed control at 140 g/ha [2, 10] | pest or weed control at 140 g/ha [2, 11] | pest or weed control at 70 g/ha [2, 12] | pest or weed control at 140 g/ha [2, 12] | pest or weed control at 140 g/ha [2, 14] | pest or weed control at 70 g/ha [2, 15] | pest or weed control at 140 g/ha [2, 15] | pest or weed control at 70 g/ha [2, 17] | pest or weed control at 140 g/ha [2, 17]
0 to 29%: pest or weed control at 140 g/ha [1, 3] | pest or weed control at 70 g/ha [2, 14]
60 to 74%: pest or weed control at 70 g/ha [2, 13] | pest or weed control at 70 g/ha [2, 16] | pest or weed control at 140 g/ha [2, 16]
85 to 94%: pest or weed control at 70 g/ha [2, 11]
